Measured values from ChEMBL document CHEMBL5608113, “Targeting of CAF-induced therapy resistance in CRC organoid-stroma co-cultures” (2024).

Tests used:
Format in all cases: functional, Homo sapiens
Settings in all cases: Homo sapiens, Concentration 10 uM; read-out: Cell Viability
Colon cancer organoid [1] = assay: Targeting of F14 CAF-induced therapy resistance in O23 CRC organoid-stroma co-culture. Cell viability is reported with SN-38.
Colon cancer organoid [2] = assay: Targeting of F14 CAF-induced therapy resistance in O14 CRC organoid-stroma co-culture. Cell viability is reported with Gefitinib.
Colon cancer organoid [3] = assay: Targeting of F14 CAF-induced therapy resistance in O23 CRC organoid-stroma co-culture. Cell viability is reported without Gefitinib.
Colon cancer organoid [4] = assay: Targeting of F14 CAF-induced therapy resistance in O23 CRC organoid-stroma co-culture. Cell viability is reported with Gefitinib.
Colon cancer organoid [5] = assay: Targeting of F14 CAF-induced therapy resistance in O14 CRC organoid-stroma co-culture. Cell viability is reported without Gefitinib.

SMILES	viability at 10 µM (Colon cancer organoid [1])	viability at 10 µM (Colon cancer organoid [2])	viability at 10 µM (Colon cancer organoid [3])	viability at 10 µM (Colon cancer organoid [4])	viability at 10 µM (Colon cancer organoid [5])
O=C(NCC(=O)N1CCCC1)Nc1ccc2cnccc2c1	39%	76.1%	179%	68.5%	83.8%
O=C1CCc2cc(Nc3cc(OC4CCOCC4)c([N+](=O)[O-])cc3Cl)ccc2N1	60.5%	75.9%	117%	57.9%	112%
Cc1cc2c(cc1N1C(=O)c3cccc4c(CCCO)ccc(c34)C1=O)n(C)c(=O)n2C	81.8%	43.3%	150%	71.7%	47.7%
Nc1ncnc2c1ccn2[C@@H]1O[C@H]([C@H](O)c2ccccc2)[C@@H](O)[C@H]1O	68.9%	14.9%	97.6%	45%	14.9%
c1ccc([C@@H]2C[C@H]2NC2CCNCC2)cc1	68.3%	58.2%	79.5%	68%	114%
Clc1cc2c(NC3CCCC3)nnc(-c3ccncc3)c2cc1Cl	114%	65.8%	142%	72.9%	91.2%
O=C(NC[C@H](O)CN1CCc2ccccc2C1)c1ccnc(NC2CCC2)c1	50.6%	31.9%	83.1%	43.2%	32.6%
Cc1nnc2c3ccccc3c(N[C@@H](C)[C@H](c3ccccc3)N(C)C)nn12	141%	53.6%	119%	55.2%	69.8%
O=C(O)c1cc(-c2ccc(C3CCNCC3)cc2)c2ccc(-c3ccc(C(F)(F)F)cc3)cc2c1	60.3%	34.4%	165%	47.6%	77%
Cc1c(C(=O)O)cc(-c2ccc(C3CCNCC3)cc2)c2ccc(-c3ccc(C(F)(F)F)cc3)cc12	76.8%	38.7%	143%	48.3%	64.2%
C[C@H]1CC(=O)Nc2cc(C(=O)NCCC3CC3)ccc2N1C(=O)N1CC2CC2C1 (stereo not given in full)	160%	59.8%	196%	142%	108%
C[C@@H](c1cccc(CN)c1)n1cc(Cl)cc(C(N)=O)c1=N	99.7%	33.4%	172%	51%	106%
Cc1c(Nc2ccc(S(=O)(=O)N3CCN(C)CC3)cc2F)nc2ccc(Nc3cnn(C4CC4)c3)cn2c1=O	71.2%	53%	118%	115%	68.6%
C[C@@H](c1cccc(C#N)c1)n1cc(Cl)cc(C(N)=O)c1=N	62.2%	34.3%	126%	49.6%	76.7%
O=C(Nc1cccnn1)N1CC(C/C=C/c2cncc(Oc3ccc(C(F)(F)F)cn3)n2)C1	83.6%	55.5%	132%	50.3%	93.5%
Cc1c(Nc2ccc(S(=O)(=O)N3CCN(C)CC3)cc2F)nc2ccc(-c3cnn(C4CC4)c3)cn2c1=O	85.7%	69.8%	153%	88.9%	51.6%
CCOC(=O)CCNc1cc(N2CCc3ccccc3CC2)nc(-c2cccnc2)n1	79.9%	57.2%	140%	90.8%	60.1%
O=C([C@@H](Cc1cccc(C(F)(F)F)c1)NS(=O)(=O)c1cc(F)c2c(c1)CCNC2)N1CCCC1	60.3%	65%	81.5%	55.1%	114%
COc1cc(OC)cc(-c2noc(N3CCN(C)C4(CCN(c5ccnc(C)c5)CC4)C3)n2)c1	101%	49.2%	108%	74.2%	103%
COc1ccccc1C(=O)Nc1cc2c(cc1N1CCNCC1C)n(C)c(=O)n2C (stereo not given)	55.3%	66%	84%	56.5%	98.7%
Cn1cncc1[C@](O)(COc1ccc(C#N)cc1-c1ccc(OC(F)(F)F)cc1)c1ccc(C#N)cc1	76.2%	18.5%	75.6%	40.9%	47%
